Patent publication US10064858B2, “Methods and compositions for treating bacterial infections with iron chelators” (THE UNITED STATES OF AMERICA, AS REPRESENTED BY THE …, priority 2011, dated 2018)
In brackets after ≈: the same amount, converted by molar mass. Like-named read-outs stand apart in the source and are kept apart here.

What was measured:
Format in all cases: cell-based
[1] = system: Acinetobacter baumannii; experiment: MIC, CLSI microdilution (Tables 1 and 6)
Protocol: (§1) The minimal inhibitory concentration (MIC) of non-toxic iron chelators was determined against standard strains of MDR bacteria and clinical isolates according to the guidelines of the Clinical and Laboratory Standards Institute (CLSI).
(§2) Individual MICs were determined following the microdilution method recommended by CLSI in cationic-adjusted Mueller-Hinton Broth (CAMHB), or M9 media. […] Tests were performed in triplicate. MIC of iron chelators were determined for noscomial ESKAPE pathogens.
(§3) MIC were determined in CAMHB media as described above in Example 8.

[2] = system: E. coli; experiment: MIC, CLSI microdilution (Tables 1 and 6)
Protocol: as §1, §2, §3

[3] = system: K. pneumonia; experiment: MIC, CLSI microdilution (Tables 1 and 6); details: Klebsiella pneumoniae
Protocol: as §1, §2, §3

[4] = system: P. aeruginosa; experiment: MIC, CLSI microdilution (Tables 1 and 6); details: Pseudomonas aeruginosa
Protocol: as §1, §2, §3

[5] = system: S. aureus; experiment: MIC, CLSI microdilution (Tables 1 and 6); details: Staphylococcus aureus
Protocol: as §1, §2, §3

[6] = system: Acinetobacter baumannii; experiment: MIC in RPMI1640 media (Table 2)
Protocol: (§4) […] […] Tests were performed in triplicate. MIC of iron chelators were determined for noscomial ESKAPE pathogens.
(§5) This media is closer to the iron levels in the human body. MICs are in ug/mL.

[7] = system: E. coli; experiment: MIC in RPMI1640 media (Table 2)
Protocol: as §4, §5

[8] = system: K. pneumonia; experiment: MIC in RPMI1640 media (Table 2); details: Klebsiella pneumoniae
Protocol: as §4, §5

[9] = system: P. aeruginosa; experiment: MIC in RPMI1640 media (Table 2); details: Pseudomonas aeruginosa
Protocol: as §4, §5

[10] = system: Acinetobacter baumannii strain 5711 (AB5711); experiment: Growth (OD600) of AB5711 in low iron media with chelators, with or without FeCl3; details: AB5711; low iron media; 100 μM or 200 μM chelator added after 4 hr; 24 hr
Protocol: Acinetobacter baumannii strain 5711 (AB5711) was grown overnight in LB media and sub-cultured into low iron media. The tested iron chelators were deferoxamine (DFO), deferiprone (DFP), 2,2-dipyridyl, and VK28. The iron chelators were added after 4 hr of growth.
Bacterial growth was estimated by absorption at OD600 every 4 hr for 24 hr. Optical density (OD) at 600 nm (OD600) as measured by a spectrophotometer is a widely used technique known by one skilled in the art to estimate the total number of bacterial cells present in a broth culture (CFU/ml). The exact amount of OD produced by a culture will depend on the concentration of cells present, the species and strain of microbe present, the growth conditions used, and the wavelength of the light being transmitted. Thus, the relationship between OD and cell concentrations will depend on the specific strain and growth conditions studied. For example, the OD600 of 1 for E. coli is about 1×10^9 CFU/ml.
This example provides further evidence that the removal of iron is responsible for bacterial growth inhibition. A. baumannii isolate 5711 was grown in low iron M9 media supplemented with 0 μM, 10 μM, or 100 μM FeCl3 with and without the addition of 200 μM VK28 following 4 hr of growth. Growth was estimated by absorbance at 600 nm every 4 hr for 24 hr.
This example provides further evidence that the removal of iron is responsible for bacterial growth inhibition. A. baumannii isolate 5711 was grown in low iron M9 media supplemented with 0 μM, 10 μM, 100 μM, or 1000 μM FeCl3 with and without the addition of 50 μg/ml of VK28 following 4 hr of growth. Growth was estimated by absorbance at 600 nm after 20 hours.

[11] = system: E. coli EC35218; experiment: Time-kill assay in CAMHB; details: ¾MIC Rifampicin alone; CAMHB
Protocol: Reductions in colony forming units (CFU)/mL were determined over time (time-kill assay) after exposure to VK28 and deferiprone (DFP), the two iron chelators that performed best in MIC assays when compared to controls. To better represent the iron content found in the human body, MIC and time-kill assays were also determined in minimal media and tissue culture media. Time-Kill assays were performed as previously described in G. P. Neupane et al., “In vitro time-kill activities of ciprofloxacin alone and in combination with the iron chelator deferasirox against Vibrio vulnificus,” European Journal of Clinical Microbiology and Infectious Diseases, 407-410 (2010); and R. L. White, et al., “Comparison of Three Different In Vitro Methods of Detecting synergy: Time-Kill, Checkerboard, and E test,” Journal of Antimicrobial Agents and Chemotherapy, 1914-1918 (1996). Initial inocula, for example 1×10^6 CFU/mL or 1×10^7 CFU/mL were challenged with iron chelator with and/or without an antibiotic. Cells were allowed to grow in CAMHB at 37° C. for 24 hours. Time-kill results were analyzed by determining the change in log 10 numbers of CFU/ml at 0, 6, and 24 h, compared to counts at 0 h. Antimicrobials were considered bactericidal at the lowest concentration that reduced the size of the original inoculum by >3 log 10 CFU/ml (99.9%) over each of the time periods and were considered bacteriostatic if the inoculum's size was reduced by 0 to <3 log 10 CFU/ml.
In this example, time-kill assays were performed as described in Example 9 against different multi-drug resistant bacteria, namely E. coli and MRSA.
In this example, time-kill assays were performed as described in Example 9 using ApoL1 as the iron chelator against two different E. coli strains. […] Time-kill results were analyzed by determining the change in log 10 numbers of CFU/mL at 6 and 24 hours.
In this example, time-kill assays were performed as described in Example 9 using Apo6619 as the iron chelator in combination with Rifampin against E. coli 35718. […] Time-kill results were analyzed by determining the change in log 10 numbers of CFU/mL at 0, 5 and 24 hours.

[12] = system: A. baumannii strain AB19606; experiment: Growth (OD600) with chelator, Rifampin or both; details: CAMHB
Protocol: A. baumannii strain AB19606 was grown in CAMHB and challenged with 1.5×MIC compound 4 (Var) or 1.5×MIC Triapine (Tri) with or without 0.75×MIC Rifampin (Rif). Growth was estimated by absorbance at 600 nm (y-axis) at 0 or 24 hours.

[13] = system: E. coli strain EC35218; experiment: Growth (OD600) with chelator, Rifampin or both; details: CAMHB
Protocol: E. coli strain EC35218 was grown in CAMHB and challenged with 1.5×MIC compound 4 (Var) or 1.5×MIC Triapine (Tri) with or without 0.75×MIC Rifampin (Rif). Growth was estimated by absorbance at 600 nm (y-axis) at 0 or 24 hours.

[14] = system: AB5075, a stain of A. baumannii (Ab); experiment: Development of rifampin resistance over 7 days (OD600); details: rifampin alone
Protocol: Development of antibiotic-resistant strains is an ongoing problem in the treatment of bacterial infections. In some embodiments, the present technology provides methods and compositions for reducing, inhibiting or preventing formation of antibiotic-resistant bacterial strains. In some embodiments, the iron chelator of the present technology is administered to a patient as a prophylactic before antibiotic treatment or during antibiotic treatment. In some embodiments, the iron chelator is added concurrently with an antibiotic.
Cultures of AB5075, a stain of A. baumannii (Ab), was cultured in the presence of Rifampin alone, the iron chelator ApoL1 alone or Rifampin combination with ApoL1 for 7 days.

[15] = ATCC17978, ATCC 17978, Table 1, read-out: MIC of Iron Chelators
[16] = ATCC19606, ATCC 19606, Table 1, read-out: MIC of Iron Chelators
[17] = Escherichia coli, ATCC35218, ATCC 35218, Table 1, read-out: MIC of Iron Chelators
[18] = Escherichia coli, ATCC43888, ATCC 43888 (0157:H7), Table 1, read-out: MIC of Iron Chelators
[19] = ATCC700603, ATCC 700603, Table 1, read-out: MIC of Iron Chelators
[20] = BAA2146, BAA-2146, Table 1, read-out: MIC of Iron Chelators
[21] = ATCC27853, ATCC 27853, Table 1, read-out: MIC of Iron Chelators
[22] = PAO1, Table 1, read-out: MIC of Iron Chelators
[23] = ATCC25923, ATCC 25923, Table 1, read-out: MIC of Iron Chelators
[24] = ATCC 43300 (MRSA), Table 1, read-out: MIC of Iron Chelators
[25] = ATCC17978, ATCC 17978, read-out: MIC of Iron Chelators
[26] = ATCC19606, ATCC 19606, read-out: MIC of Iron Chelators
[27] = Escherichia coli, 35718, read-out: MIC of Iron Chelators
[28] = Escherichia coli, ATCC43888, ATCC 43888 (0157:H7), read-out: MIC of Iron Chelators
[29] = ATCC700603, ATCC 700603, read-out: MIC of Iron Chelators
[30] = BAA2146, BAA-2146, read-out: MIC of Iron Chelators
[31] = ATCC27853, ATCC 27853, read-out: MIC of Iron Chelators
[32] = PAO1, read-out: MIC of Iron Chelators
[33] = alone: 1.5×MIC chelator or 0.75×MIC Rifampin
[34] = 1.5×MIC chelator in combination with 0.75×MIC Rifampin

SMILES | MIC [1, 15] [µg/mL] | MIC [1, 16] [µg/mL] | MIC [2, 17] [µg/mL] | MIC [2, 18] [µg/mL] | MIC [3, 19] [µg/mL] | MIC [3, 20] [µg/mL] | MIC [4, 21] [µg/mL] | MIC [4, 22] [µg/mL] | MIC [5, 23] [µg/mL] | MIC [5, 24] [µg/mL] | MIC [6, 25] [µg/mL] | MIC [6, 26] [µg/mL] | MIC [7, 27] [µg/mL] | MIC [7, 28] [µg/mL] | MIC [8, 29] [µg/mL] | MIC [8, 30] [µg/mL] | MIC [9, 31] [µg/mL] | MIC [9, 32] [µg/mL] | bacterial growth (OD600 growth curves) [10] | reduction of bacteria (absorbance at 600 nm, 24 hours) [12, 33] | further results
CC(=O)N(O)CCCCCNC(=O)CCC(=O)N(O)CCCCCNC(=O)CCC(=O)N(O)CCCCCN [DFO, deferoxamine] | > 500 | > 500 | > 500 | > 500 | > 500 | > 500 | > 500 | > 500 | > 500 | > 500 | > 500 | > 500 | > 500 | > 500 | > 500 | > 500 | > 500 | > 500 | little effect |  | 
c1ccc(-c2ccccn2)nc1 [DIP, 2,2-dipyridyl] | 64 | 64 | 64 | 64 | 500 | 250 | 250 | 250 | 500 | 250 | 32 | 32 | 64 | 64 | 250 | 125 | 250 | 250 | reduced bacterial growth to a significant extent |  | 
CO[C@H]1/C=C/O[C@@]2(C)Oc3c(C)c(O)c4c(O)c(c(/C=N/N5CCN(C)CC5)c(O)c4c3C2=O)NC(=O)/C(C)=C\C=C\[C@H](C)[C@H](O)[C@@H](C)[C@@H](O)[C@@H](C)[C@H](OC(C)=O)[C@@H]1C [Rifampin] |  |  |  |  |  |  |  |  |  |  |  |  |  |  |  |  |  |  |  | no reduction of bacteria | CFU/mL at 24 hours [11]: about 1×10^7 CFU/mL; reduction of bacteria (absorbance at 600 nm, 24 hours) [13, 33]: did not result in a reduction of bacteria; time until antibiotic-resistant strains develop [14]: less than one day
NC(=S)N/N=C/c1ncccc1N [Triapine, 3-aminopyridine-2-carboxaldehyde thiosemicarbazone] |  |  |  |  |  |  |  |  |  |  |  |  |  |  |  |  |  |  |  | no reduction of bacteria | MIC ([1]; AB19606, CAMHB, read-out: MIC): 32 µg/mL (≈ 164 µM); MIC ([2]; EC43888, CAMHB): 125 µg/mL (≈ 640 µM); MIC ([2]; Escherichia coli, EC35218, CAMHB, read-out: MIC): 125 µg/mL (≈ 640 µM); MIC ([3]; KP700603, CAMHB, read-out: MIC): 250 µg/mL (≈ 1280 µM); MIC ([4]; PA27853, CAMHB, read-out: MIC): 250 µg/mL (≈ 1280 µM); MIC ([5]; SA43300, CAMHB, read-out: MIC): 125 µg/mL (≈ 640 µM); reduction of bacteria (absorbance at 600 nm, 24 hours) [12, 34]: significant reduction in bacteria; reduction of bacteria (absorbance at 600 nm, 24 hours) [13, 34]: significant reduction in bacteria; reduction of bacteria (absorbance at 600 nm, 24 hours) [13, 33]: did not result in a reduction of bacteria
